Read-outs that look alike come from different tables or passages of the source.
Legend:
[1] = test system: CHO cells; experiment: [3H]adenosine / [3H]adenine transport in CHO cells; details: 0-750 μM vesnarinone or 0-100 μM dipyridamole, 1 min pulse
[2] = test system: EBV; experiment: In situ hybridization of EBV DNA in anti-IgG stimulated DMSO-released Akata cells; format: cell-based, Epstein-Barr virus; details: 20 hrs after 50 μg/ml anti-IgG; vesnarinone 0-100 μg/ml; acyclovir pretreatment
Description: The human Burkitt's lymphoma cell line, Akata, provided by Dr. Kenzo Takada (Takada, Int. J. Cancer, 33:27-32 (1984); and Takada et al, Virus Genes, 5:147-156 (1991)), was cultured at 37° C. in RPMI 1640 medium supplemented with 15% (v/v) heat-inactivated FCS, and 20 μg/ml gentamicin.
The cell progression of Akata cells was arrested by culturing of the cells for 96 hrs in the presence of 1.5% (y/v) DMSO (Sigma, St. Louis, Mo.) (Sawai et al, Exp. Cell Res., 187:4-10 (1990); and Takase et al, Cell Growth Differ., 3:515-521 (1992)).
1 hr after transfer (release from DMSO), a goat F(ab')2 fragment of anti-human IgG antibody (Organon Teknika, Durham, N.C.) was added at a concentration of 50 μg/ml to induce productive EBV replication (Takagi et al, Virology, 185:309-315 (1991)).
3 hrs and 20 hrs after treatment with the anti-IgG, the cells were harvested for flow cytometric detection of the BamHI Z replication activator (ZEBRA), and for in situ detection of EBV DNA, respectively. […]
More specifically, cells coated on a glass slide were fixed in acetone at room temperature for 10 min. […] Positivity for EBV DNA was determined by the presence of red-colored grains and at least 1000 cells were examined under light microscopy. […]

[3] = test system: nucleoside and nucleobase transport in human T cells; experiment: [3H]nucleoside / [3H]nucleobase transport, 1 min pulse, T cells; format: cell-based; details: 250 μM vesnarinone, 100 μM deferoxamine, 15 nM aphidicolin or 1.0 μM dipyridamole
[4] = test system: Raji cells; experiment: [3H]adenosine / [3H]adenine transport in Raji cells; details: 0-750 μM vesnarinone or 0-100 μM dipyridamole, 1 min pulse
[5] = test system: human T cells; experiment: 30 min [3H]thymidine, [3H]uridine and [3H]amino acid incorporation; format: cell-based; details: 30 min label, 250 μM vesnarinone
Description: Next, the PHA-stimulated T cells were labelled for 30 min with 5.0 μCi/ml of an [^3 H]amino acid mixture (1.0 mCi/ml, Amersham, Arlington Heights, Ill.), washed twice with ice-cold PBS, and then lysed in PBS containing 1.0% (w/v) SDS, followed by addition of a mixture of 7.0% (w/v) trichloroacetic acid and 1.0% (w/v) pyrophosphate. The precipitates were loaded on GF/A filters, and washed extensively with a mixture of 7.0% (w/v) trichloroacetic acid and 1.0% (w/v) pyrophosphate. Radioactivity was measured by scintillation counting.

[6] = test system: Akata cells; experiment: dNTP pools in Akata cells (enzymatic method); details: 100 μg/ml vesnarinone
Description: After a 10 min incubation on ice, the supernatant containing dNTPs was removed, frozen and evaporated with a rotary evaporator. The residue was dissolved in 100 μl of H2 O, and a 10 μl aliquot of this solution was used for the measurement of dNTP pool.
More specifically, 10 μl of the sample or a dNTP standard solution was mixed with 40 μl of the reaction buffer comprising 62.5 mMTris-HCl (pH 7.8), 0.625 mM DTT, 0.125 mg/ml calf thymus DNA (Sigma), 0.625 mg/ml BSA, 10 mM MgCl2, 6.25 μM three dNTPs, and 5.0 μCi/ml [^3 H]dATP (ICN, Costa Mesa, Calif.), for measurement of dTTP, dCTP, and dGTP, or [^3 H]dTTP (ICN), for measurement of dATP. The reaction solution was then mixed with 1.0 unit of E. coli DNA polymerase I (Boehringer Mannheim), and incubated for 40 min at 37° C. After completion of the reaction, the mixture was applied to Whatman DE-81 paper filters and radioactivity was determined using a liquid scintillation counter after three washes with 0.35M Na2 HPO4 (pH 7.5). Amounts of dNTP in the samples were calculated according to the calibration curves estimated by a set of standard dNTP samples.
In parallel, to measurement of the content of dNTPs in the untreated Akata cells after release, the dNTP pool in anti-IgG treated Akata cells was also measured in the same manner.

[7] = test system: EBNA2, LMP1, bcl-2; experiment: Western blot of EBNA2, LMP1 and bcl-2 in Burkitt's lymphoma cell lines; format: cell-based, human; details: 20 μg/ml vesnarinone 7 days
Excerpt: The cell lines included Akata (type A, group I), Raji (type A, group III), P3HR1 (type B, group I) (ATCC No. HTB-62), and Jijoye (type B, group III) (ATCC No. CCL-87). The molecules examined were a latent nuclear protein, EBNA2, a latent membrane protein, LMP1, and an anti-apoptotic host component, bcl-2. […] These differences between the two phenotypes have been related to the sensitivity to induce apoptosis, and the ability to induce the productive phase of EBV infection (Henderson et al, Cell, 65:1107-1115 (1991); and Gregory et al, Nature, 349:612-614 (1991)).
For detection of EBNA2, LMP1, and bcl-2, the mouse monoclonal anti-EBNA2 (PE2, Accurate, Westbury, N.Y.) (Young et al, N. Engl. J. Med., 321:1080-1085 (1989)), the mouse monoclonal anti-LMP1 (S12, provided by Dr. David A. Thorley-Lawson) (Mann et al, J. Virol., 55:710-720 (1985)), and the monoclonal anti-bcl-2 (bcl-2/124, Accurate) (Pezzella et al, Am. J. Pathol., 137:225-232 (1990)), respectively, were used. The ECL chemiluminescence method was used for the detection of these proteins.

[8] = MTT cell viability of MRC5 cells; format: cell-based; details: human, mrc5 cells, read-out: MTT Cell Viability (% of control)
Description: More specifically, 5.0 μg/ml of MTT in Eagles MEM supplemented with 2.0% (v/v) fetal bovine serum was added to each well, and incubated at 37° C. for 6 hr. The cells were then solubilized by adding 30% (w/v) SDS in 0.02N HCl. The cultures were incubated overnight at 37° C. Then, the optical density was measured at 570 nm on a spectrophotometer.

[9] = test system: Akata, P3HR1, Jijoye, Raji; experiment: Cell growth of Burkitt's lymphoma cell lines, 7 days; format: cell-based; details: Homo sapiens, Burkitts lymphoma cell, 168 h; read-out: cell growth (cell numbers) relative to control cultures
[10] = test system: EBV; experiment: Productive replication of EBV in growing Akata cells (in situ hybridization); format: cell-based, Epstein-Barr virus; details: for positivity for EBV DNA: 20 μg/ml vesnarinone
Description: 1 hr later, anti-IgG was added to the cultures at a final concentration of 50 μg/ml, and the cells were harvested for in situ hybridization of EBV DNA 24 hrs later as described above.

COc1ccc(C(=O)N2CCN(c3ccc4c(c3)CCC(=O)N4)CC2)cc1OC [vesnarinone, 3,4-dihydro-6-[4-(3,4-dimethoxybenzoyl)-1-piperazinyl]-2(1H)-quinoline]
[3H]adenosine and [3H]adenine transport [1]: inhibitory effects on nucleoside and nucleobase transport in vitro were observed within the therapeutic range | population of EBV producing cells (positivity for EBV DNA) [2]: gradually decreased in the presence of vesnarinone in a dose-dependent manner | transport of [3H]thymidine, [3H]adenosine, [3H]adenine, [3H]uracil [3]: inhibited transportation of [^3 H]thymidine, [^3 H]adenosine, [^3 H]adenine, and also to a lesser extent, [^3 H]uracil | [3H]adenosine and [3H]adenine transport [4]: inhibitory effects on nucleoside and nucleobase transport in vitro were observed within the therapeutic range | [3H]amino acid incorporation [5]: did not inhibit [^3 H]amino acid incorporation | [3H]uridine incorporation, brief exposure ([5]; 15 nM aphidicolin or 100 μM deferoxamine): rapidly inhibited [^3 H]uridine incorporation | cellular content of dATP and dGTP ([6]; 13 hrs after DMSO release, without anti-IgG): displayed progressive reductions 13 hrs after release in the presence of vesnarinone | level of dTTP in anti-IgG treated cells ([6]; 20 hrs after anti-IgG): partially suppressed in the presence of vesnarinone | cellular content of dCTP ([6]; after DMSO release): remained low in the presence or absence of vesnarinone | cellular content of dTTP ([6]; after DMSO release, without anti-IgG): the levels of dTTP remained quite low | expression of EBNA2, LMP1, bcl-2 ([7]; group I lines (Akata, P3HR1)): did not induce these molecules in the group I lines | expression of EBNA2, LMP1, bcl-2 ([7]; group III lines (Raji, Jijoye)): nor did the vesnarinone alter levels of expression of these molecules in the group III lines | viability ([8]; vesnarinone 3.88 μg/ml alone): 100% | viability ([8]; vesnarinone 7.75 μg/ml alone): 98% | viability ([8]; vesnarinone 15.5 μg/ml alone): 98% | viability ([8]; vesnarinone 31 μg/ml alone): 90% | activity at 20 µg/mL [9]: 80 to 90% | EBV production ([10]; 20 μg/ml vesnarinone only concurrently with anti-IgG treatment): displayed a more profound reduction of EBV production | positivity for EBV DNA ([10]; pre-treatment alone (7 days)): the degree of positivity for EBV DNA was higher | positivity for EBV DNA ([10]; pre-treatment+post-treatment or solely post-treatment): reduced the level of positivity for EBV DNA compared to untreated cells
